From patent US5837483A, “Enzymatic method for producing N-formyl-α-L-aspartyl-L-phenylalanine methyl ester” (Holland Sweetener Company V.o.F., priority 1996, dated 1998)
Residues, ends and D or L forms follow the SMILES beside them. *: point of attachment. For = O=C*

Key:
[1] = Partition of F-L-Asp between water-immiscible organic solvent and aqueous phase (distribution ratio, eq. 2); assay type: physicochemical; conditions: for PF-A-Asp / pKa: 40° C
Text: Moreover, organic solvents of which distribution ratios of F-L-Asp (DF-L-Asp) described by following equation (2) are 10^-4 or less at pH=6.0 are suitable for increase of conversion ratios to F-APM because large amount of F-L-Asp can be distributed in aqueous phase: [formula] wherein
PF-L-Asp =(CF-L-Asp)org /(CF-L-Asp)aq(2a);
KF-L-Asp1 ={(Cf-L-Asp.spsb.-)aq ×CH.spsb.+
KF-l=Asp2 ={(CF-L-Asp.spsb.2-)aq ×CH.spsb.+
}/(CF-L-Asp.spsb.-)aq (2c);
(CF-L-Asp)org : concentration of F-L-Asp contained in the organic phase after the extraction of F-APM;
(CF-L-Asp)aq : concentration of F-L-Asp remained in the aqueous phase after the extraction of F-APM;
(CF-L-Asp.spsb.-)aq : concentration of F-L-Asp^- remained in the aqueous phase after the extraction of F-APM;
CH.spsb.+ : concentration of H^+ remained in the aqueous phase after the extraction of F-APM;
(CF-L-Asp.spsb.2-)aq : concentration of F-L-Asp^2- remained in the aqueous phase after the extraction of F-APM.
PF-L-Asp, KF-L-Asp1 and KF-L-Asp2 were obtained by the partition model of F-L-Asp described by following scheme 2: [drawing 2]
Furthermore, above equation (2) was obtained by following equation (4): [formula]
(§1) 10 ml of organic solvent saturated by water and 10 ml of aqueous solution saturated by organic solvent were entered into sample tube, and 50 mM of F-L-Asp was dissolved in said organic solvent saturated by water and 50 mM of F-APM was dissolved in said aqueous solution saturated by organic solvent.
As a value showing the ability to suppress transfer of F-L-Asp from aqueous phase to organic phase, DF-L-Asp described by equation (2) was used.
(§2) Measurements of these PF-APM and PF-L-Asp were carried out at 40° C.
(§3) DF-APM values of many kinds of organic solvent are shown in Table 1 wherein methyl isobutyl ketone, n-butylformate and butyl acetate are shown as comparative examples, and DF-L-Asp values of many kinds of organic solvent are shown in Table 2.

[2] = relative to cane sugar; cited from earlier work
[3] = Batchwise biphase condensation reaction: F-APM in aqueous and organic phase by HPLC; assay type: physicochemical; conditions: tributyl phosphoric acid/aqueous enzyme solution pH=6.5, 40° C
Protocol: This example was carried out by batchwise operation in biphase system of aqueous phase and organic phase.
An enzyme aqueous solution of pH=6.5 containing 1.131 g/l of thermoase, 0.1M buffer agent (MES) and 0.01M CaCl2, and substrate tributyl phosphoric acid solution containing 88.15 mM of F-L-Asp and 120.97 mM of L-PM were prepared separately and were maintained at 40° C. Both 5 ml's of two solutions were mixed and the condensation reaction between F-L-Asp and L-PM was started. Concentrations of F-L-Asp, L-PM and F-APM were analyzed by HPLC.

[4] = Partition of F-APM between water-immiscible organic solvent and aqueous phase (distribution ratio, eq. 1); assay type: physicochemical; conditions: for PF-APM / pKa: 40° C; for pKa: read-out: pKF-APM
Text: The water-immiscible solvents of which distribution ratios (DF-APM) described by following equation (1) are 10^-2 or more at pH=6.0 are suitable for effective the extraction of the F-APM produced to the organic phase: [formula] wherein
PF-APM =(CF-APM)org /(CF-APM)aq (1a);
KF-APM ={(CF-APM.spsb.-)aq ×CH.spsb.+
(CF-APM)org : concentration of F-APM contained in the organic phase after the extraction of F-APM;
(CF-APM)aq : concentration of F-APM remained in the aqueous phase after the extraction of F-APM;
(CF-APM.spsb.-)aq : concentration of F-APM^- remained in the aqueous phase after the extraction of F-APM;
CH.spsb.+ : concentration of H^+ remained in the aqueous phase after the extraction of F-APM.
Above PF-APM and KF-APM were obtained by following partition model of F-APM described by following scheme 1. [drawing 1]
Furthermore, above equation (1) was obtained by relation described by following equation (3). [formula]
as §1
As a value showing the ability of organic solvent to extract F-APM from aqueous phase, DF-ApM described by equation (1) were used.
as §2, §3

[5] = methyl ethyl ketone/water, pH = 5
[6] = methyl ethyl ketone/water, pH = 6
[7] = methyl ethyl ketone/water, pH = 7
[8] = tri-butylphosphoric acid, n-amylalcohol, t-amylalcohol, 1-butanol, methyl ethyl ketone and isobutanol, pH=6.0
[9] = tri-butylphosphoric acid/water, pH = 5
[10] = tri-butylphosphoric acid/water, pH = 6
[11] = tri-butylphosphoric acid/water, pH = 7
[12] = butylacetate/water (comparative)
[13] = methyl isobutyl ketone/water (comparative)
[14] = n-butylformate/water (comparative)

O=CN[C@@H](CC(=O)O)C(=O)O [F-L-Asp, N-formyl-L-aspartic acid]
PF-A-Asp ([1]; 1-butanol/water): 0.424
pKa ([1]; 1-butanol/water, read-out: pKF-L-Asp1): 2.99
pKa ([1]; 1-butanol/water, read-out: pKF-L-Asp2): 4.83
DF-L-Asp ([1]; 1-butanol/water, pH = 5): 16.6 ×10^-4
DF-L-Asp ([1]; 1-butanol/water, pH = 6): 0.262 ×10^-4
DF-L-Asp ([1]; 1-butanol/water, pH = 7): 0.00278 ×10^-4
PF-A-Asp ([1]; isobutanol/water): 0.356
pKa ([1]; isobutanol/water, read-out: pKF-L-Asp1): 3.11
pKa ([1]; isobutanol/water, read-out: pKF-L-Asp2): 4.44
DF-L-Asp ([1]; isobutanol/water, pH = 5): 9.9 ×10^-4
DF-L-Asp ([1]; isobutanol/water, pH = 6): 0.123 ×10^-4
DF-L-Asp ([1]; isobutanol/water, pH = 7): 0.00125 ×10^-4
PF-A-Asp ([1]; methyl ethyl ketone/water): 0.296
pKa ([1]; methyl ethyl ketone/water, read-out: pKF-L-Asp1): 3.43
pKa ([1]; methyl ethyl ketone/water, read-out: pKF-L-Asp2): 4.43
DF-L-Asp [1, 5]: 16.0 ×10^-4
DF-L-Asp [1, 6]: 0.201 ×10^-4
DF-L-Asp [1, 7]: 0.00206 ×10^-4
PF-A-Asp ([1]; n-amylalcohol/water): 0.166
pKa ([1]; n-amylalcohol/water, read-out: pKF-L-Asp1): 2.95
pKa ([1]; n-amylalcohol/water, read-out: pKF-L-Asp2): 4.17
DF-L-Asp ([1]; n-amylalcohol/water, pH = 5): 1.9 ×10^-4
DF-L-Asp ([1]; n-amylalcohol/water, pH = 6): 0.0216 ×10^-4
DF-L-Asp ([1]; n-amylalcohol/water, pH = 7): 0.00021 ×10^-4
PF-A-Asp ([1]; t-amylalcohol/water): 0.498
pKa ([1]; t-amylalcohol/water, read-out: pKF-L-Asp1): 3.16
pKa ([1]; t-amylalcohol/water, read-out: pKF-L-Asp2): 4.63
DF-L-Asp ([1]; t-amylalcohol/water, pH = 5): 21.4 ×10^-4
DF-L-Asp ([1]; t-amylalcohol/water, pH = 6): 0.294 ×10^-4
DF-L-Asp ([1]; t-amylalcohol/water, pH = 7): 0.00305 ×10^-4
pKa ([1]; tri-butyl phosphoric acid/water, read-out: pKF-L-Asp1): 3.18
pKa ([1]; tri-butyl phosphoric acid/water, read-out: pKF-L-Asp2): 4.44
DF-L-Asp values at pH=6.0 [1, 8]: ≤ 1×10^-4
PF-A-Asp ([1]; tri-butylphosphoric acid/water): 0.558
DF-L-Asp [1, 9]: 18.2 ×10^-4
DF-L-Asp [1, 10]: 0.226 ×10^-4
DF-L-Asp [1, 11]: 0.00231 ×10^-4

COC(=O)[C@H](Cc1ccccc1)NC(=O)[C@@H](N)CC(=O)O [aspartame, α-L-Aspartyl-L-phenylalanine methyl ester] (H-Asp-Phe-OMe)
sweetness of cane sugar [2]: about 200 times

COC(=O)[C@H](Cc1ccccc1)NC(=O)[C@H](CC(=O)O)NC=O [F-APM, N-formyl-α-L-aspartyl-L-phenylalanine methyl ester] (For-Asp-Phe-OMe)
transfer of F-APM produced to the organic phase [3]: all F-APM produced were transferred to the organic phase
PF-APM ([4]; 1-butanol/water): 7.13
pKa ([4]; 1-butanol/water): 4.17
DF-APM ([4]; 1-butanol/water, pH = 5): 0.919
DF-APM ([4]; 1-butanol/water, pH = 6): 0.101
DF-APM ([4]; 1-butanol/water, pH = 7): 0.0105
PF-APM [4, 12]: 0.47
pKa [4, 12]: 4.02
DF-APM ([4]; butylacetate/water (comparative), pH = 5): 0.045
DF-APM ([4]; butylacetate/water (comparative), pH = 6): 0.0049
DF-APM ([4]; butylacetate/water (comparative), pH = 7): 0.00049
PF-APM ([4]; methyl ethyl ketone/water): 2.14
pKa ([4]; methyl ethyl ketone/water): 4.61
DF-APM [4, 5]: 0.556
DF-APM [4, 6]: 0.087
DF-APM [4, 7]: 0.0087
PF-APM [4, 13]: 0.80
pKa [4, 13]: 4.01
DF-APM ([4]; methyl isobutyl ketone/water (comparative), pH = 5): 0.074
DF-APM ([4]; methyl isobutyl ketone/water (comparative), pH = 6): 0.0080
DF-APM ([4]; methyl isobutyl ketone/water (comparative), pH = 7): 0.00082
PF-APM ([4]; n-amylalcohol/water): 3.70
pKa ([4]; n-amylalcohol/water): 4.22
DF-APM ([4]; n-amylalcohol/water, pH = 5): 0.527
DF-APM ([4]; n-amylalcohol/water, pH = 6): 0.0604
DF-APM ([4]; n-amylalcohol/water, pH = 7): 0.0061
PF-APM [4, 14]: 0.64
pKa [4, 14]: 4.17
DF-APM ([4]; n-butylformate/water (comparative), pH = 5): 0.083
DF-APM ([4]; n-butylformate/water (comparative), pH = 6): 0.0091
DF-APM ([4]; n-butylformate/water (comparative), pH = 7): 0.0012
PF-APM ([4]; t-amylalcohol/water): 6.89
pKa ([4]; t-amylalcohol/water): 4.21
DF-APM ([4]; t-amylalcohol/water, pH = 5): 0.866
DF-APM ([4]; t-amylalcohol/water, pH = 6): 0.107
DF-APM ([4]; t-amylalcohol/water, pH = 7): 0.0111
DF-APM values at pH=6.0 [4, 8]: ≥ 1×10^-2
PF-APM ([4]; tri-butylphosphoric acid/water): 13.0
pKa ([4]; tri-butylphosphoric acid/water): 4.01
DF-APM [4, 9]: 1.20
DF-APM [4, 10]: 0.13
DF-APM [4, 11]: 0.0133
